Test results from US8846935B2, “Indazoles” (GlaxoSmithKline LLC, priority 2010, dated 2014).

Each compound was assayed against T1, EZH2 within the PRC2 complex (Homo sapiens, UniProt Q15910) (assay: EZH2 methyltransferase scintillation proximity assay (SPA)). Conditions: methyltransferase activity of EZH2 in human PRC2 complex, 3H-SAM, HeLa mononucleosomes.
T1 construct: FLAG; made in house; host or cells: Sf9 cells
Type: biochemical
Protocol: Compounds contained herein were evaluated for their ability to inhibit the methyltransferase activity of EZH2 within the PRC2 complex. Human PRC2 complex was prepared by co-expressing each of the 5 member proteins (FLAG-EZH2, EED, SUZ12, RbAp48, AEBP2) in Sf9 cells followed by co-purification. Enzyme activity was measured in a scintillation proximity assay (SPA) where a tritiated methyl group is transferred from 3H-SAM to a lysine residue on Histone H3 of a mononucleosome, purified from HeLa cells. Mononucleosomes were captured on SPA beads and the resulting signal is read on a ViewLux plate reader.
Part A. Compound Preparation
• 1. Prepare 10 mM stock of compounds from solid in 100% DMSO. • 2. Set up an 11-point serial dilution (1:3 dilution, top concentration 10 mM) in 100% DMSO for each test compound in a 384 well plate leaving columns 6 and 18 for DMSO controls. • 3. Dispense 100 nL of compound from the dilution plate into reaction plates (Grenier Bio-One, 384-well, Cat#784075). Part B. Reagent Preparation Prepare the following solutions: • 1. 50 mM Tris-HCl, pH 8: Per 1 L of base buffer, combine 1 M Tris-HCl, pH 8 (50 mL) and distilled water (950 mL). • 2. 1× Assay Buffer: Per 10 mL of 1× Assay Buffer, combine 50 mM Tris-HCl, pH 8 (9958 uL), 1 M MgCl2 (20 uL), 2 M DTT (20 uL), and 10% Tween-20 (2 uL) to provide a final concentration of 50 mM Tris-HCl, pH 8, 2 mM MgCl2, 4 mM DTT, 0.002% Tween-20. • 3. 2× Enzyme Solution: Per 10 mL of 2× Enzyme Solution, combine 1× Assay Buffer and PRC2 complex to provide a final enzyme concentration of 10 nM. • 4. SPA Bead Suspension: Per 1 mL of SPA Bead Suspension, combine PS-PEI coated LEADSeeker beads (40 mg) and ddH2O (1 mL) to provide a final concentration of 40 mg/mL. • 5. 2× Substrate Solution: Per 10 mL of 2× Substrate Solution, combine 1× Assay Buffer (9728.55 uL), 800 ug/mL mononucleosomes (125 uL), 1 mM cold SAM (4 uL), and 7.02 uM 3H-SAM (142.45 uL; 0.55 mCi/mL) to provide a final concentration of 5 ug/mL nucleosomes, 0.2 uM cold SAM, and 0.05 uM 3H-SAM. • 6. 2.67× Quench/Bead Mixture: Per 10 mL of 2.67× Quench/Bead Mixture, combine ddH2O (9358 uL), 10 mM cold SAM (267 uL), 40 mg/mL Bead Suspension (375 uL) to provide a final concentration of 100 uM cold SAM and 0.5 mg/mL SPA beads. Part C. Assay Reaction in 384-well Grenier Bio-One Plates Compound Addition • 1. Dispense […] of 100× Compound to test wells (as noted above). • 2. Dispense […] of 100% DMSO to columns 6 & 18 for high and low controls, respectively. Assay • 1. Dispense 5 uL/well of 1× Assay Buffer to column 18 (low control reactions). • 2. Dispense 5 uL/well of 2× Enzyme Solution to columns 1-17, 19-24. • 3. Spin assay plates for ˜1 minute at 500 rpm. • 4. Stack the assay plates, covering the top plate. • 5. Incubate the compound/DMSO with the enzyme for 30 minutes at room temperature. • 6. Dispense 5 uL/well of 2× Substrate Solution to columns 1-24. • 7. Spin assay plates for ˜1 minute at 500 rpm. • 8. Stack the assay plates, covering the top plate. • 9. Incubate the assay plates at room temperature for 1 hour. Quench/Bead Addition • 1. Dispense 5 uL/well of the 3× Quench/Bead Mixture to columns 1-24. • 2. Seal the top of each assay plate with adhesive TopSeal. • 3. Spin assay plates for ˜1 minute at 500 rpm. • 4. Equilibrate the plates for >20 min. Read Plates • 1. Read the assay plates on the Viewlux Plate Reader utilizing the 613 nm emission filter with a 300 s read time. Reagent addition can be done manually or with automated liquid handler. *The final DMSO concentration in this assay is 1%. *The positive control is in column 6; negative control is in column 18. *Final starting concentration of compounds is 100 μM. Part D. Data Analysis
Percent inhibition was calculated relative to the DMSO control for each compound concentration and the resulting values were fit using standard IC50 fitting parameters within the ABASE data fitting software package.

T1 sequence (Q15910 whole entry): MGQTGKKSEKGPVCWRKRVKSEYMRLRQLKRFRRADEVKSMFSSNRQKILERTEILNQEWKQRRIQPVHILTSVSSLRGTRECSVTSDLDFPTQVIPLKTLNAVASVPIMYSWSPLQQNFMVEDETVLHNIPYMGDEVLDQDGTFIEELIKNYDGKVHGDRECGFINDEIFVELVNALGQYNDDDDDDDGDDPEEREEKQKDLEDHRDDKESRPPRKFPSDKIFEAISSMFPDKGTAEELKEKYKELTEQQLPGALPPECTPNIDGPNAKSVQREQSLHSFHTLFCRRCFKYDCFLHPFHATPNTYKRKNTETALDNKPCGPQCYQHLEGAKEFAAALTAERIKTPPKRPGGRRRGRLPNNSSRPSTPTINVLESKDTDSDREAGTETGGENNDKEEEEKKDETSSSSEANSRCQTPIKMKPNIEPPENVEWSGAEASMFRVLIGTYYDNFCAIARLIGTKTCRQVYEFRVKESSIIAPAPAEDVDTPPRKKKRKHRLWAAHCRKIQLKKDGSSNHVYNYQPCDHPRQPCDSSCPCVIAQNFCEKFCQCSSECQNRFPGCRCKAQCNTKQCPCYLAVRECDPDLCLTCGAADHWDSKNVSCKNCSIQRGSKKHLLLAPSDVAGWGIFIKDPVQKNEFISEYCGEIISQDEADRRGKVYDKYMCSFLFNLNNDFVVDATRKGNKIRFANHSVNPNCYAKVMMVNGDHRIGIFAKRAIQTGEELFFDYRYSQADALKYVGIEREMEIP
T1 sequence (O75530 whole entry partner): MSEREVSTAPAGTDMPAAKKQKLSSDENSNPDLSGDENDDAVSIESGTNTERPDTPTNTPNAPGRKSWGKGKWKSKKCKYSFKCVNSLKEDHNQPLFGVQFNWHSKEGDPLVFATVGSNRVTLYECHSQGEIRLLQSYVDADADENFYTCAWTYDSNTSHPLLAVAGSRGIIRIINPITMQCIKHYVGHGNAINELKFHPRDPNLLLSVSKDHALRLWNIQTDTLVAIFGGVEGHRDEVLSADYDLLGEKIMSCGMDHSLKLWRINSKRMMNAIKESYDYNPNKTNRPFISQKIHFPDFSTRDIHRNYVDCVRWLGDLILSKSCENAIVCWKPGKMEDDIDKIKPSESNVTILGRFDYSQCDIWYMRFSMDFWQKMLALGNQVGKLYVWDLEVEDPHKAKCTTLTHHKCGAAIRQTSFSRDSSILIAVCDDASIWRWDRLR
T1 sequence (Q15022 whole entry partner): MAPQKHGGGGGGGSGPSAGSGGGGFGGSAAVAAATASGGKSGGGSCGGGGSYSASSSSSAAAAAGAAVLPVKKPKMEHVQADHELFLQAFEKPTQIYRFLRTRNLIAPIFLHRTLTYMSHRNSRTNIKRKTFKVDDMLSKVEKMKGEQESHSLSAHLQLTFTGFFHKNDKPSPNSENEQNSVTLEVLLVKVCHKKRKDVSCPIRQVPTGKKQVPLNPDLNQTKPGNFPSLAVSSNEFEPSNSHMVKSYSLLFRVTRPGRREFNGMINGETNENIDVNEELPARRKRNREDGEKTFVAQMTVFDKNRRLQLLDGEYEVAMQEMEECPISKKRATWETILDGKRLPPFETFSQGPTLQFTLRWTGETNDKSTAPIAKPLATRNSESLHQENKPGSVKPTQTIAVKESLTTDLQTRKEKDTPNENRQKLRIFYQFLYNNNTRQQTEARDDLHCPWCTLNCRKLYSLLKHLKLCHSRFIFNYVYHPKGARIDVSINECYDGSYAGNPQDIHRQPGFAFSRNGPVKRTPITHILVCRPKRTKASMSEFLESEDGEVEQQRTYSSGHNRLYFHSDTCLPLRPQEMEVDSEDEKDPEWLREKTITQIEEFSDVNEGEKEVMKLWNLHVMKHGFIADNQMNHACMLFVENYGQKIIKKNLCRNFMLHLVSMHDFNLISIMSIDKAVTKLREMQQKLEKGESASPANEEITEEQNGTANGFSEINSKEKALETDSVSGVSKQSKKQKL
T1 sequence (Q09028 whole entry partner): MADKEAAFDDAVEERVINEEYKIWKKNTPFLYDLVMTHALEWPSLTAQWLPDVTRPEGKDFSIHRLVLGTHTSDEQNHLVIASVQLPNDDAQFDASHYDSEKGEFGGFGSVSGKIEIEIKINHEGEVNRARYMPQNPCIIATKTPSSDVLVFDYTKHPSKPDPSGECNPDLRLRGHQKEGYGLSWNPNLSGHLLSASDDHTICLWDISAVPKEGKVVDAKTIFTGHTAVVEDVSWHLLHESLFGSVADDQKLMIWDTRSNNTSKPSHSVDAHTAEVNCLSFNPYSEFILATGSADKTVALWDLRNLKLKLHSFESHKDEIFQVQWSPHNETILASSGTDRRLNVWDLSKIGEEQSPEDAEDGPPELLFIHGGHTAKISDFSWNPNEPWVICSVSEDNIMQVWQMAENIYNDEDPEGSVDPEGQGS
T1 sequence (Q6ZN18 whole entry partner): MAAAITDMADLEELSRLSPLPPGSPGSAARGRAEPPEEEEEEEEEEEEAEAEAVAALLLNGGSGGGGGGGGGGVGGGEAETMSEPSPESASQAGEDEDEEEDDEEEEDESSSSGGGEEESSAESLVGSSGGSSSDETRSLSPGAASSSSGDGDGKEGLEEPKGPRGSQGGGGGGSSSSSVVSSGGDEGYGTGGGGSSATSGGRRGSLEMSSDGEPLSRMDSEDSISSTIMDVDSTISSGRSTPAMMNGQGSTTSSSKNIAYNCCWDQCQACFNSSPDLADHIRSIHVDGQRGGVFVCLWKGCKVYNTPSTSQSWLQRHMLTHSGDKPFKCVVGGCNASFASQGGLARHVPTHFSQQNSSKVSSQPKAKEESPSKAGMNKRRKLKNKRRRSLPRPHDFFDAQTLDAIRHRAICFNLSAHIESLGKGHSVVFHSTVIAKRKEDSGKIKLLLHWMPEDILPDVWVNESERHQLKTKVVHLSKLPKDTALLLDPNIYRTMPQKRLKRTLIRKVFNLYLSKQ

“1-isopropyl-N-((6-methyl-2-oxo-4-propyl-1,2-dihydropyridin-3-yl)methyl)-6-(thiophen-3-yl)-1H-indazole-4-carboxamide [Example 32]” and `CCCc1cc(C)[nH]c(=O)c1CNC(=O)c1cc(Cl)cc2c1cnn2C(C)C` [Example 1, 6-chloro-1-(1-methylethyl)-N-[(6-methyl-2-oxo-4-propyl-1,2-dihydro-3-pyridinyl)methyl]-1H-indazole-4-carboxamide] are within 1.5-fold of each other in IC50: 25 nM for the first, 32 nM for the second.

Compared with `Cc1cc(C)c(CNC(=O)c2cc(Br)cc3c2cnn3C(C)C)c(=O)[nH]1` [Example 3, 6-Bromo-N-[(4,6-dimethyl-2-oxo-1,2-dihydro-3-pyridinyl)methyl]-1-(1-methylethyl)-1H-indazole-4-carboxamide], `CCc1cc(C)[nH]c(=O)c1CNC(=O)c1cc(Br)cc2c1cnn2C(C)C` [Example 4, 6-bromo-N-((4-ethyl-6-methyl-2-oxo-1,2-dihydropyridin-3-yl)methyl)-1-isopropyl-1H-indazole-4-carboxamide] is 6.3-fold lower in IC50: 158 nM for the first, 25 nM for the second.

Compared with `Cc1cc(Cc2ccccc2)c(CNC(=O)c2cc(Br)cc3c2cnn3C(C)C)c(=O)[nH]1` [Example 5, 6-bromo-1-(1-methylethyl)-N-{[6-methyl-2-oxo-4-(phenylmethyl)-1,2-dihydro-3-pyridinyl]methyl}-1H-indazole-4-carboxamide], `Cc1cc(Cc2ccccc2)c(CNC(=O)c2cccc3c2cnn3C(C)C)c(=O)[nH]1` [Example 7, 1-(1-methylethyl)-N-{[6-methyl-2-oxo-4-(phenylmethyl)-1,2-dihydro-3-pyridinyl]methyl}-1H-indazole-4-carboxamide] is 5-fold higher in IC50: 8 nM for the first, 40 nM for the second. The first is the more potent here.

Compared with `Cc1cc(C)c(CNC(=O)c2cc(-c3ccc(OCCN(C)C)cc3)cc3c2cnn3C(C)C)c(=O)[nH]1` [Example 8, N-((4,6-dimethyl-2-oxo-1,2-dihydropyridin-3-yl)methyl)-6-(4-(2-(dimethylamino)ethoxy)phenyl)-1-isopropyl-1H-indazole-4-carboxamide], `Cc1cc(C)c(CNC(=O)c2cc(-c3ccc(N4CCNCC4)cc3)cc3c2cnn3C(C)C)c(=O)[nH]1` [Example 9, N-[(4,6-dimethyl-2-oxo-1,2-dihydro-3-pyridinyl)methyl]-1-(1-methylethyl)-6-[4-(1-piperazinyl)phenyl]-1H-indazole-4-carboxamide] is 1.6-fold higher in IC50: 10 nM for the first, 16 nM for the second.

First: Cc1cc(C)c(CNC(=O)c2cc(-c3ccc(N4CCNCC4)nc3)cc3c2cnn3C(C)C)c(=O)[nH]1 [Example 10, N-[(4,6-dimethyl-2-oxo-1,2-dihydro-3-pyridinyl)methyl]-1-(1-methylethyl)-6-[6-(1-piperazinyl)-3-pyridinyl]-1H-indazole-4-carboxamide]
Second: Cc1cc(C(C)C)c(CNC(=O)c2cc(-c3ccc(N4CCNCC4)nc3)cc3c2cnn3C(C)C)c(=O)[nH]1 [Example 12, 1-isopropyl-N-((4-isopropyl-6-methyl-2-oxo-1,2-dihydropyridin-3-yl)methyl)-6-(6-(piperazin-1-yl)pyridin-3-yl)-1H-indazole-4-carboxamide]
The IC50 of the first is 3.2-fold higher: 13 nM for the first, 4 nM for the second.

First: Cc1cc(C)c(CNC(=O)c2cc(-c3cnn(C)c3)cc3c2cnn3C(C)C)c(=O)[nH]1 [Example 13, N-((4,6-dimethyl-2-oxo-1,2-dihydropyridin-3-yl)methyl)-1-isopropyl-6-(1-methyl-1H-pyrazol-4-yl)-1H-indazole-4-carboxamide]
Second: CCc1cc(C)[nH]c(=O)c1CNC(=O)c1cc(-c2ccc(CN(C)C)cc2)cc2c1cnn2C(C)C [Example 14, 6-(4-((dimethylamino)methyl)phenyl)-N-((4-ethyl-6-methyl-2-oxo-1,2-dihydropyridin-3-yl)methyl)-1-isopropyl-1H-indazole-4-carboxamide]
The IC50 of the first is 25-fold higher: 126 nM for the first, 5 nM for the second.

Going from `CCCc1cc(C)[nH]c(=O)c1CNC(=O)c1cc(-c2ccc(N3CCNCC3)nc2)cc2c1cnn2C(C)C` [Example 15, 1-(1-methylethyl)-N-[(6-methyl-2-oxo-4-propyl-1,2-dihydro-3-pyridinyl)methyl]-6-[6-(1-piperazinyl)-3-pyridinyl]-1H-indazole-4-carboxamide] to `CCc1cc(C)[nH]c(=O)c1CNC(=O)c1cc(-c2ccc(N3CCN(C)CC3)nc2)cc2c1cnn2C(C)C` [Example 16, N-((4-ethyl-6-methyl-2-oxo-1,2-dihydropyridin-3-yl)methyl)-1-isopropyl-6-(6-(4-methylpiperazin-1-yl)pyridin-3-yl)-1H-indazole-4-carboxamide], the IC50 rises from 2 nM to 3 nM (1.5-fold).

`CCCc1cc(C)[nH]c(=O)c1CNC(=O)c1cc(-c2cnc(C)nc2)cc2c1cnn2C(C)C` [Example 17, 1-isopropyl-N-((6-methyl-2-oxo-4-propyl-1,2-dihydropyridin-3-yl)methyl)-6-(2-methylpyrimidin-5-yl)-1H-indazole-4-carboxamide] and `CCCc1cc(C)[nH]c(=O)c1CNC(=O)c1cc(-c2ccc(N(C)C)nc2)cc2c1cnn2C(C)C` [Example 18, 6-[6-(dimethylamino)-3-pyridinyl]-1-(1-methylethyl)-N-[(6-methyl-2-oxo-4-propyl-1,2-dihydro-3-pyridinyl)methyl]-1H-indazole-4-carboxamide] are within 1.5-fold of each other in IC50: 8 nM for the first, 10 nM for the second.

Compared with `CCCc1cc(C)[nH]c(=O)c1CNC(=O)c1cc(-c2ccc(N3CCOCC3)nc2)cc2c1cnn2C(C)C` [Example 19, 1-(1-methylethyl)-N-[(6-methyl-2-oxo-4-propyl-1,2-dihydro-3-pyridinyl)methyl]-6-[6-(4-morpholinyl)-3-pyridinyl]-1H-indazole-4-carboxamide], `CCCc1cc(C)[nH]c(=O)c1CNC(=O)c1cc(-c2cnc(N)nc2)cc2c1cnn2C(C)C` [Example 20, 6-(2-amino-5-pyrimidinyl)-1-(1-methylethyl)-N-[(6-methyl-2-oxo-4-propyl-1,2-dihydro-3-pyridinyl)methyl]-1H-indazole-4-carboxamide] is 1.7-fold higher in IC50: 6 nM for the first, 10 nM for the second.

Going from `CCCc1cc(C)[nH]c(=O)c1CNC(=O)c1cc(-c2ccc(N)nc2)cc2c1cnn2C(C)C` [Example 21, 6-(6-amino-3-pyridinyl)-1-(1-methylethyl)-N-[(6-methyl-2-oxo-4-propyl-1,2-dihydro-3-pyridinyl)methyl]-1H-indazole-4-carboxamide] to `CCCc1cc(C)[nH]c(=O)c1CNC(=O)c1cc(-c2cncnc2)cc2c1cnn2C(C)C` [Example 22, 1-(1-methylethyl)-N-[(6-methyl-2-oxo-4-propyl-1,2-dihydro-3-pyridinyl)methyl]-6-(5-pyrimidinyl)-1H-indazole-4-carboxamide], the IC50 rises from 5 nM to 20 nM (4-fold).

Work on `CCCc1cc(C)[nH]c(=O)c1CNC(=O)c1cc(-c2ccc(OC)nc2)cc2c1cnn2C(C)C` [Example 23, 1-(1-methylethyl)-N-[(6-methyl-2-oxo-4-propyl-1,2-dihydro-3-pyridinyl)methyl]-6-[6-(methyloxy)-3-pyridinyl]-1H-indazole-4-carboxamide] yielded an IC50 of 8 nM.
